# Values of other authors as cited in publication PMC12260505, “First-in-Human Phase I/IIa Study of the First-in-Class CDK2/4/6 Inhibitor PF-06873600 Alone or with Endocrine Therapy in Patients with Breast Cancer” (Clinical Cancer Research, 2025).
# System: HR+/HER2− mBC, post-ET patient population
# Details: palbociclib and fulvestrant, PALOMA3; cited from earlier work
structure (smiles),measurement,value
CC(=O)c1c(C)c2cnc(Nc3ccc(N4CCNCC4)cn3)nc2n(C2CCCC2)c1=O [palbociclib],Median PFS,9.5 months
same,ORR,24.6%
